One assay concerns the target T1, KDM5B (Homo sapiens, UniProt Q9UGL1).
T1 construct: Full length of KDM5B and KDM4C protein were purchased from Active Motif; purchased Active Motif 31832
In words: biochemical. As for the experimental part: (§1) KDM4C and KDM5B AlphaScreen Assay Material and Method
(§2) Compounds disclosed herein were (and can be) screened using the following assay.
Peptides used in all experiments were purchased from Anaspe. […] Final concentration of KDM5B and KDM4C used in the assay were 0.5 nM and 0.2 nM. Final concentration of peptides for 5B and 4C used in the assay were 3 nM.
(§3) 4 μL of KDM5B or KDM4C protein were added to 384-well OptiPlate by using multiflow, followed by 4 μl of either buffer or compound. Plates were sealed, spun down and incubated at RT for 15 min. 4 μl of biotinylated peptide was added to the plate, the plate was incubated at room temperature for 25 minutes (KDM5B) and 30 minutes (KDM4C) after sealed and spun down. Streptavidin donor beads and acceptor beads were diluted and mixed in the detection buffer with 7.5 mM EDTA, followed by adding 8 μl of acceptor and donor beads mix to the plate, before the plate was sealed and incubated at room temperature for 3 h or overnight at dark. The plate was read on Envision plate reader (PerkinElmer) using Alphascreen protocol. IC50s were calculated in GraphPad Prism 6.

In the next assay the target is T2, KDM4C (Homo sapiens, UniProt Q9H3R0).
T2 construct: Full length of KDM5B and KDM4C protein were purchased from Active Motif; purchased Active Motif 31858
T2 sequence (Q9H3R0 1-1056): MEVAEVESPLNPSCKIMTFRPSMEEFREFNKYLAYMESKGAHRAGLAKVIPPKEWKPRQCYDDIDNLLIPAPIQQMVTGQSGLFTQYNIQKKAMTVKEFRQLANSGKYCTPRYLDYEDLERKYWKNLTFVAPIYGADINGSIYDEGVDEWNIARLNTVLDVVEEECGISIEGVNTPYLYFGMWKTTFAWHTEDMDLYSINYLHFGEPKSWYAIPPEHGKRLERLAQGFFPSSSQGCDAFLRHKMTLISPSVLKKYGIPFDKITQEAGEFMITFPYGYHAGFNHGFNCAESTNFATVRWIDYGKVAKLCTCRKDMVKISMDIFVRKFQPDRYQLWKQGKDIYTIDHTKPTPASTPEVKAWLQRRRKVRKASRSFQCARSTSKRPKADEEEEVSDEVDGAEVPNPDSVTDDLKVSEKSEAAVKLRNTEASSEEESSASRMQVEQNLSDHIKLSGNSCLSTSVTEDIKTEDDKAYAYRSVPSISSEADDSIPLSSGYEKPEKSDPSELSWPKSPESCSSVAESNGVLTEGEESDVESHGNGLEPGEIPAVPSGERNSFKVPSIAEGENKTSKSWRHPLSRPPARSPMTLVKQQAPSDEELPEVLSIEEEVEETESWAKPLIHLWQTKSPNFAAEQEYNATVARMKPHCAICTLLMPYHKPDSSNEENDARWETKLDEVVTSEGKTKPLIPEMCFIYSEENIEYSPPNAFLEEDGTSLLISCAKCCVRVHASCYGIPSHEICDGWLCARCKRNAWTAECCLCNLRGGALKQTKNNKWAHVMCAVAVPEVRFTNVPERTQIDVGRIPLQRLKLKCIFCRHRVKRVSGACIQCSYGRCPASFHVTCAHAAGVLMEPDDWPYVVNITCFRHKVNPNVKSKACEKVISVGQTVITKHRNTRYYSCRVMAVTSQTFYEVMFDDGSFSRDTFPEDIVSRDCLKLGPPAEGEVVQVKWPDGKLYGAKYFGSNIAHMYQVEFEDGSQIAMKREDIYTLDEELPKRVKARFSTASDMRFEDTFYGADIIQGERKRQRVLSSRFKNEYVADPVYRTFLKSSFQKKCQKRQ
Kind of assay: KDM4C AlphaScreen assay. It counts as biochemical. Conditions: AlphaScreen; full length KDM4C 0.2 nM; biotinylated H3K9Me3 peptide 3 nM; 30 minutes at room temperature. As for the experimental part: as §1, §2
Peptides used in all experiments were purchased from Anaspe. Full length of KDM5B and KDM4C protein were purchased from Active Motif: KDM5B (cat#31832) and KDM4C (Cat #31858). Final concentration of KDM5B and KDM4C used in the assay were 0.5 nM and 0.2 nM. Final concentration of peptides for 5B and 4C used in the assay were 3 nM.
as §3, with “AlphaScreen assays was conducted as following protocol: buffer used to make compound plate or DMSO is composed of 50 mM HEPES pH 7.4, 0.003% Tween-20; buffer used to dilute enzyme is composed of 50 mM HEPES pH 7.4, 0.003% Tween-20, 0.01% BSA, 500 μM TCEP; and buffer used to dilute the substrate is composed of 50 mM HEPES pH 7.4, 0.003% Tween-20, (NH4)2Fe(SO4)2 15 μM, alpha-ketoglutaric acid 4 μM and L-ascorbic acid 100 μM. 4 μL” for “4 μL”

Setting [1] is: AlphaScreen, full length KDM5B 0.5 nM, biotinylated H3K4Me3 peptide 3 nM, 25 minutes at room temperature, read-out: KDM5B (IC50).

The term IC50 denotes the concentration needed to halve the response being measured.

Read-outs that look alike come from different tables or passages of the source.

T1 sequence (Q9UGL1 whole entry): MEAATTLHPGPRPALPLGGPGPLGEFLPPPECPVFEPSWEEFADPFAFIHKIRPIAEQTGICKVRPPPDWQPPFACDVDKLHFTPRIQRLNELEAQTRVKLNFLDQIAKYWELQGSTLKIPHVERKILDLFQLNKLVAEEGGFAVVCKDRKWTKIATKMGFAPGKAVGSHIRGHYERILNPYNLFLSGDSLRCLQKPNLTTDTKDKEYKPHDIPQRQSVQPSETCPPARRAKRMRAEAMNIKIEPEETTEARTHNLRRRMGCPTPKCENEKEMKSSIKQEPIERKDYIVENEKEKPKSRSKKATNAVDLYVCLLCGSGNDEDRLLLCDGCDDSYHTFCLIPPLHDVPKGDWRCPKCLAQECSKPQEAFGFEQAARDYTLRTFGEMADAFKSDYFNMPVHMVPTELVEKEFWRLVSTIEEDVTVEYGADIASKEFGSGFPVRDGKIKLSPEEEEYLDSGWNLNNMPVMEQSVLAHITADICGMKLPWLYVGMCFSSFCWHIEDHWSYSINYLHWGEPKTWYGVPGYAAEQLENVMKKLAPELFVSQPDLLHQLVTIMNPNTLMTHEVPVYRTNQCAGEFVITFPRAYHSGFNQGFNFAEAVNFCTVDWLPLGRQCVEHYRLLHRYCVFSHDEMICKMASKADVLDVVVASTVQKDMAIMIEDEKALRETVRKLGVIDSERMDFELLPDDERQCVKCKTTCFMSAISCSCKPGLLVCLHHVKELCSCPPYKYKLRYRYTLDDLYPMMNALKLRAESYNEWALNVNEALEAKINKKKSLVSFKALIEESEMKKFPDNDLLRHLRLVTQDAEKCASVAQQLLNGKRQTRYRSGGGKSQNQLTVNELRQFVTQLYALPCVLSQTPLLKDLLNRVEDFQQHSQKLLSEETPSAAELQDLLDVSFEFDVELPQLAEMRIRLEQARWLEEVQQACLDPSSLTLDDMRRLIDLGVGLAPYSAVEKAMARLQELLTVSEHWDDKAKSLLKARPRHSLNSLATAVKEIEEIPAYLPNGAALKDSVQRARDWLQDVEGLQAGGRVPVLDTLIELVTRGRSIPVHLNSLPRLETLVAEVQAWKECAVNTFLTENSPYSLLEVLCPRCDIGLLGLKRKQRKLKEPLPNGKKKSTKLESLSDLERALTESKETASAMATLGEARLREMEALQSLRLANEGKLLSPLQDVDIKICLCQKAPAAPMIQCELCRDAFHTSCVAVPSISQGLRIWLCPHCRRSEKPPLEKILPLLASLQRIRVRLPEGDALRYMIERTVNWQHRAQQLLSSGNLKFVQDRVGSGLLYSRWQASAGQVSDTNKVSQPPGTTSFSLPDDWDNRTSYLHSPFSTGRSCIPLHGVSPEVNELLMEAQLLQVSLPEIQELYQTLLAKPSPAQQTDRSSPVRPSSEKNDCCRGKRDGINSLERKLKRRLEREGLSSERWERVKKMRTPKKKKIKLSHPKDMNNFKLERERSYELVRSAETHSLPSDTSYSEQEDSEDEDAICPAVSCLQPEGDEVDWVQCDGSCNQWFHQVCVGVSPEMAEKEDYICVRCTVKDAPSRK

In the case of `CC(C)c1c(O)nc(-n2ccnc2)nc1-c1ccc(CNS(C)(=O)=O)cc1` [Example 48, N-({4-[6-Hydroxy-2-(1H-imidazol-1-yl)-5-(propan-2-yl)pyrimidin-4-yl]phenyl}-methyl)methanesulfonamide], the IC50 at KDM5B (setting [1]) came out at 0.013 µM; against KDM4C it was 1.26 µM.

As for `CC(C)c1c(O)nc(-n2ccnc2)nc1-c1cnn(CC(=O)NCCN(C)c2ccccc2)c1` [Example 102, 2-{4-[6-Hydroxy-2-(1H-imidazol-1-yl)-5-(propan-2-yl)pyrimidin-4-yl]-1H-pyrazol-1-yl}-N-{2-[methyl-(phenyl)amino]ethyl}-acetamide], the IC50 at KDM5B (setting [1]) worked out at 0.014 µM; against KDM4C, 1.4 µM.

For `COCCNC(=O)Cn1cc(-c2nc(-n3ccnc3)nc(O)c2C(C)C)cn1` [Example 118, 2-{4-[6-Hydroxy-2-(1H-imidazol-1-yl)-5-(propan-2-yl)pyrimidin-4-yl]-1H-pyrazol-1-yl}-N-(2-methoxy-ethyl)acetamide], the figures for the IC50 against KDM5B and on KDM4C were 0.033 µM and 3.08 µM, respectively.

`CC(C)c1c(O)nc(-n2ccnc2)nc1-c1ccccc1` [Example 83, 2-(1H-Imidazol-1-yl)-6-phenyl-5-(propan-2-yl)-pyrimidin-4-ol]: the IC50 at KDM5B stood at 0.089 µM; at KDM4C it was 2.69 µM.

In the case of `Cc1nc(-n2ccnc2CO)nc(O)c1C(C)C` [Example 25, 2-[2-(hydroxymethyl)imidazol-1-yl]-5-isopropyl-6-methyl-pyrimidin-4-ol], the half-inhibitory concentration (IC50) against KDM5B worked out at 0.048 µM; on KDM4C, 0.613 µM.

For the molecule `CC(C)c1cnc(-c2cncs2)nc1O` [Example 157, 5-(Propan-2-yl)-2-(1,3-thiazol-5-yl)-pyrimidin-4-ol], the values for the IC50 on KDM5B (setting [1]) and at KDM4C were 0.805 µM and 5.82 µM, respectively.

On to `CC(C)c1c(O)nc(-n2ccnc2)nc1OCC(=O)NCc1cccnc1` [Example 141, 2-{[6-Hydroxy-2-(1H-imidazol-1-yl)-5-(propan-2-yl)pyrimidin-4-yl]oxy}-N-(pyridin-3-ylmethyl)-acetamide], for which the IC50 was determined as 0.033 µM at KDM5B (setting [1]) and 4.4 µM against KDM4C.

Take `CC(C)c1c(O)nc(-n2ccnc2)nc1-c1cnn(CC(=O)NCCN2CCC(F)(F)CC2)c1` [Example 96, N-[2-(4,4-Difluoropiperidin-1-yl)ethyl]-2-{4-[6-hydroxy-2-(1H-Imidazol-1-yl)-5-(propan-2-yl)pyrimidin-4-yl]-1H-pyrazol-1-yl}acetamide]: the values for the IC50 on KDM5B and against KDM4C were 0.007 µM and 0.779 µM, respectively.

As to `CC(C)c1c(O)nc(-n2ccnc2)nc1-c1cnn(CC(=O)NCCN2CCC(O)CC2)c1` [Example 92, 2-{4-[6-Hydroxy-2-(1H-imidazol-1-yl)-5-(propan-2-yl)pyrimidin-4-yl]-1H-pyrazol-1-yl}-N-[2-(4-hydroxypiperidin-1-yl)ethyl]-acetamide], the IC50 at KDM5B came out at 0.006 µM; against KDM4C it was 0.525 µM.

Take `CC(=O)NCc1ccc(-c2nc(-n3ccnc3)nc(O)c2C(C)C)cc1` [Example 43, N-({4-[6-Hydroxy-2-(1H-imidazol-1-yl)-5-(propan-2-yl)pyrimidin-4-yl]phenyl}-methyl)acetamide]: the 50% inhibitory concentration (IC50) is 0.009 µM on KDM5B (setting [1]) and 1.11 µM at KDM4C.

Regarding `CC(C)c1c(O)nc(-n2ccnc2)nc1OCC1(N)CC1` [Example 128, 6-[(1-Aminocyclopropyl)-methoxy]-2-(1H-imidazol-1-yl)-5-(propan-2-yl)pyrimidin-4-ol], the IC50 stood at 0.019 µM at KDM5B (setting [1]) and 1.4 µM against KDM4C.

As for `CC(C)c1c(O)nc(-n2ccnc2-c2ccccn2)nc1-c1cnn(C(C)C)c1` [Example 3, 5-(Propan-2-yl)-6-[1-(propan-2-yl)-1H-pyrazol-4-yl]-2-[2-(pyridin-2-yl)-1H-imidazol-1-yl]pyrimidin-4-ol], the 50% inhibitory concentration (IC50) came to 0.372 µM against KDM5B and 9.68 µM on KDM4C.

As for `CC(C)c1c(O)nc(-n2ccnc2)nc1-c1cnn(CC(=O)NCCS(C)(=O)=O)c1` [Example 107, 2-{4-[6-Hydroxy-2-(1H-imidazol-1-yl)-5-(propan-2-yl)pyrimidin-4-yl]-1H-pyrazol-1-yl}-N-(2-methane-sulfonylethyl)acetamide], the IC50 on KDM5B (setting [1]) was 0.019 µM; on KDM4C, 1.22 µM.

In the case of `CC(C)c1c(O)nc(-n2ccnc2)nc1OCC1CN(C(=O)OCc2ccccc2)CCN1` (stereo not drawn) [Example 127, Benzyl 3-({[6-hydroxy-2-(1H-imidazol-1-yl)-5-(propan-2-yl)pyrimidin-4-yl]-oxy}methyl)piperazine-1-carboxylate], the IC50 at KDM5B (setting [1]) stood at 0.018 µM; at KDM4C, 3.08 µM.

In the case of `CCCn1cc(-c2nc(-n3ccnc3)nc(O)c2C(C)C)cn1` [Example 56, 2-(1H-Imidazol-1-yl)-5-(propan-2-yl)-6-(1-propyl-1H-pyrazol-4-yl)pyrimidin-4-ol], the half-maximal inhibitory concentration (IC50) against KDM5B worked out at 0.015 µM; at KDM4C, 0.996 µM.

For `CC(C)c1c(O)nc(-n2ccnc2)nc1OCCN1CCCC1=O` [Example 132, 1-(2-{[6-Hydroxy-2-(1H-imidazol-1-yl)-5-(propan-2-yl)pyrimidin-4-yl]oxy}ethyl)-pyrrolidin-2-one], the values for the 50% inhibitory concentration (IC50) against KDM5B and on KDM4C were 0.03 µM and 2.41 µM, respectively.

With `CC(C)c1c(O)nc(-n2ccnc2)nc1OCCN1CCN(C)CC1` [Example 122, 2-(1H-Imidazol-1-yl)-6-[2-(4-methylpiperazin-1-yl)ethoxy]-5-(propan-2-yl)pyrimidin-4-ol], the half-maximal inhibitory concentration (IC50) at KDM5B (setting [1]) worked out at 0.007 µM; against KDM4C, 1.27 µM.

Turning to `CC(C)c1c(O)nc(-n2ccnc2)nc1-n1ccnc1` [Example 28b, 2,6-di(1H-imidazol-1-yl)-5-isopropylpyrimidin-4-ol], the IC50 turned out to be 0.019 µM at KDM5B and 1.65 µM on KDM4C.

`Cc1nc(-n2cncc2CO)nc(O)c1C(C)C` [Example 24a, 2-[5-(hydroxymethyl)imidazol-1-yl]-5-isopropyl-6-methyl-pyrimidin-4-ol]: the figures for the concentration for half-maximal inhibition (IC50) against KDM5B and against KDM4C were 0.045 µM and 0.499 µM, respectively.

`CC(C)c1c(O)nc(-n2ccnc2)nc1-c1cnn(CC(=O)NCCN2CCCC2)c1` [Example 6, 2-(4-(6-Hydroxy-2-(1H-imidazol-1-yl)-5-isopropylpyrimidin-4-yl)-1H-pyrazol-1-yl)-N-(2-(pyrrolidin-1-yl)ethyl)acetamide]: the results for the IC50 on KDM5B and against KDM4C were 0.004 µM and 0.214 µM, respectively.

Consider `CC(C)c1c(O)nc(-n2ccnc2)nc1OCCc1ccncc1` [Example 129, 2-(1H-Imidazol-1-yl)-5-(propan-2-yl)-6-[2-(pyridin-4-yl)ethoxy]pyrimidin-4-ol], for which the IC50 on KDM5B came to 0.027 µM; at KDM4C, 1.12 µM.

The values above are taken from US20190135793A1, “HETEROCYCLIC INHIBITORS OF KDM5 FOR THE TREATMENT OF DISEASE” (Board of Regents, The University of Texas System, priority 2017, published 2019).
